Series [1] concerns recombinant ASFV genotype II Georgia virus, GeorgiaDMGFB. Type of series: cell-based, African swine fever virus.
For series [2], the system named is ASFV strain Georgia 2007/1. To be noted: pig, in vivo, po, 30 mg/kg.
For series [3], the system named is ASFV strain Georgia 2007/1. To be noted: pig, in vivo.
The test system of the next series is ASFV Georgia 2007/1. The series is described as follows: microbe, parasite or virus in culture. It counts as cell-based. To be noted: African swine fever virus, PBMC, 72 h, read-out: EC50 Georgia 2007/1.
Another series can be described thus: in vitro. The conditions noted are these: pig, CC50 (50% cytotoxic concentration).
The test system of another series is porcine kidney cells. To be noted: pig.
The conditions of series [4]: pig, in vivo.
The subject of a further series is ASFV BOT 1/99. Kind of series: microbe, parasite or virus in culture. The conditions noted are these: African swine fever virus, PBMC, 72 h, read-out: EC50 BOT P1/99. Type of series: cell-based.
Another series can be described thus: in vivo. To be noted: pig.
A further series relates to ASFV KAB6/2. The series is described as follows: microbe, parasite or virus in culture. It counts as cell-based. To be noted: African swine fever virus, PBMC, 72 h, read-out: EC50 KAB6/2.
The next series concerns ASFV Magadi w/hog 9. The series is described as follows: microbe, parasite or virus in culture. It counts as cell-based. The conditions noted are these: African swine fever virus, PBMC, 72 h, read-out: EC50 Magadi w/hog 9.

The record followed here is patent US20250205257A1 (priority 2022, published 2025).

SMILES strings stand for the structures.

In the case of `CC(C)(C)C(=O)OCOP1(=O)CO[C@@H](Cn2ccc(N)nc2=O)CO1` (stereo partly drawn) [Compound 1, Pivaloyloxymethyl ester of cHPMPC], the “efficacy compared to cHPMPC” value in series [1] is listed as “intermediate”.

For the molecule `CC(C)OC(=O)OCOP1(=O)CO[C@@H](Cn2ccc(N)nc2=O)CO1` (stereo partly drawn) [Compound 2, Isopropyloxycarbonyloxymethyl ester of cHPMPC], in series [1], the “efficacy compared to cHPMPC” value is on record as “intermediate”.

For the molecule `CCCCCCCCCCCCCCCCOCCCOP1(=O)CO[C@@H](Cn2ccc(N)nc2=O)CO1` (stereo partly drawn) [Compound 3, Hexadecyloxypropyl ester of cHPMPC], in [1], the “efficacy compared to cHPMPC” value is “greatly increased efficacy” and the selectivity indices result is listed as “thousands”.

With `CCCCCCCCCCCCCCCCCCOCCOP1(=O)CO[C@@H](Cn2ccc(N)nc2=O)CO1` (stereo partly drawn) [Compound 4, Octadecyloxyethyl ester of cHPMPC], in [1], the “efficacy compared to cHPMPC” value is on record as “greatly increased efficacy” and the selectivity indices entry is on record as “thousands”.

Regarding `CC(C)OC(=O)[C@H](C)NP1(=O)CO[C@@H](Cn2ccc(N)nc2=O)CO1` (stereo partly drawn) [Compound 5, Isopropyl L-alaninyl cHPMPC], in series [1], the “efficacy compared to cHPMPC” value is listed as “intermediate”.

`Nc1ccn(C[C@H]2COP(=O)(O)CO2)c(=O)n1` [cHPMPC, cyclic cidofovir]: the ASF viraemia entry in series [2] is recorded as “significantly reduced”. For the same molecule, in [2], the “ASF viral genome copies in organs (lungs, spleens, lymph nodes) compared to placebo” value is on record as “significantly reduced”. In addition, in [2], the “median survival / median day of death” value is 8 days. Besides, the “pigs survived until the end of the study (day 27 post ASFV challenge) with no ASF disease” value in [3] stood at 2 pigs. The “ASFV genome copies in blood on termination days compared to control pigs” value in series [3] (po, 30 mg/kg) is reported as “reduced”. In addition, the “ASFV genome copies in swab samples on termination days compared to control pigs” value in series [3] (po, 30 mg/kg) is reported as “reduced”. The median survival in [3] (po, 30 mg/kg) worked out at 19.5 days. In series [3] (po, 30 mg/kg), the “pigs euthanized at moderate severity humane endpoint on day 6 showing reduced ASF disease” value turned out to be 2 pigs. In addition, the “pigs euthanized at moderate severity humane endpoint on day 19 and day 20 with delayed and reduced ASF disease” value in [3] (po, 30 mg/kg) worked out at 2 pigs. Moreover, the EC50 in the series with ASFV Georgia 2007/1 was determined as 310 ± 170 nM; in the series on ASFV BOT 1/99 it was 300 ± 200 nM; with ASFV KAB6/2, 590 ± 80 nM; with ASFV Magadi w/hog 9 it was 110 ± 50 nM. The figures for the CC50 in the series “in vitro” and with porcine kidney cells were 47000 nM and 59000 nM, respectively. For the same molecule, the other adverse events entry in [4] was “No other adverse events were recorded”. Further, the tolerability entry in series [4] is “well tolerated”. The “injection site observation 1 hour post intravenous dosing” value in [4] (iv, 5 mg/kg) is on record as “redness at injection site was observed in all pigs”. Further, the “injection site observation 4 hour post intravenous administration” value in series [4] (iv, 5 mg/kg) is given as “no injection site reactions were observed”. Moreover, the “concentration above which mNeon Green expression was not observed” value in series [1] was greater than 0.05 µM. For the same molecule, the half-life (commonly the time in which the quantity being followed falls by half) is 3.31 h in “in vivo” (iv, 5 mg/kg) and 3.51 h in the series “in vivo” (po, 25 mg/kg). The AUC (as a rule, concentration integrated over time) is 71.6 µM·h in “in vivo” (iv, 5 mg/kg, AUC, analyte VV03-0035); 58 to 95.4 µM·h in “in vivo” (iv, 5 mg/kg, exposure (AUC) of VV03-0035, range across pigs); 11.6 µM·h in “in vivo” (po, 25 mg/kg, AUC, analyte VV03-0035); 2.32 to 23.7 µM·h in “in vivo” (po, 25 mg/kg, exposure (AUC) of VV03-0035, range across pigs).
